Values of other authors as cited in patent publication US6420614B1, “Process for obtaining 3′-epilutein” (Industrial Organica, S.A. DE C.V., priority 2000, dated 2002).

system: egg yolk; conditions: relative potency of zeaxanthin stereoisomers; (3R,3′R)-zeaxanthin = 100%

| SMILES | potency in pigmenting of egg yolk |
| --- | --- |
| CC1=C(/C=C/C(C)=C/C=C/C(C)=C/C=C/C=C(C)/C=C/C=C(C)/C=C/C2=C(C)C[C@@H](O)CC2(C)C)C(C)(C)C[C@H](O)C1 [(3R, 3′R)-zeaxanthin (III), (3R,3′R)-zeaxanthin] | 100% |
| CC1=C(/C=C/C(C)=C/C=C/C(C)=C/C=C/C=C(C)/C=C/C=C(C)/C=C/C2=C(C)C[C@@H](O)CC2(C)C)C(C)(C)C[C@H](O)C1 [(3RS, 3′SR)-zeaxanthin (racemic), (3RS, 3′SR)-zeaxanthin] | 92% |
| CC1=C(/C=C/C(C)=C/C=C/C(C)=C/C=C/C=C(C)/C=C/C=C(C)/C=C/C2=C(C)C[C@H](O)CC2(C)C)C(C)(C)C[C@H](O)C1 [(3R, 3′S)-zeaxanthin (meso, II), (3R,3′S)-zeaxanthin] | 37% |
| CC1=C(/C=C/C(C)=C/C=C/C(C)=C/C=C/C=C(C)/C=C/C=C(C)/C=C/C2=C(C)C[C@H](O)CC2(C)C)C(C)(C)C[C@@H](O)C1 (single isomer, unassigned) [(3S, 3′S)-zeaxanthin (enantiomer)] | 86% |
